In ChEMBL document CHEMBL5390219, “Benzyl stapled modification and anticancer activity of antimicrobial peptide A4K14-Citropin 1.1” (Bioorg Med Chem Lett, 2023):
The source made the active and inactive calls. No cut-off for these calls is given here. *1 amine or outer side, *2 acyl side, *3 side chain or, on linkers, in order; H or OH if unused. Where a SMILES comes first, the peptide text is derived from it. Bridges are numbered along the chain shown (N, C = ends). Biphenyl(4,4'-CH2)2 = c1cc(-c2ccc(C[*:2])cc2)ccc1C[*:1]; mXylylene = c1cc(C[*:1])cc(C[*:2])c1; oXylylene = c1ccc(C[*:2])c(C[*:1])c1; pXylylene = c1cc(C[*:2])ccc1C[*:1]

Legend:
HCT-116 = assay: Anti-cancer activity against human HCT-116 assessed as cell viability incubated for 48 hrs by CCK-8 assay; type: functional, cell-based; conditions: HCT-116, 48 h
MCF7 [1] = assay: Anti-cancer activity against human MCF7 assessed as cell viability incubated for 48 hrs by CCK-8 assay; type: functional, cell-based; conditions: MCF7, 48 h
U-87 MG = assay: Anti-cancer activity against human U-87 MG assessed as cell viability incubated for 48 hrs by CCK-8 assay; type: functional, cell-based, U-87MG ATCC
MCF7 [2] = assay: Induction of apoptosis in human MCF7 cells assessed as early apoptotic cells at 5 uM incubated for 24 hrs by Annexin V-FITC/PI staining based flow cytometry analysis (reference value: 1.01%); type: functional
MCF7 [3] = assay: Induction of apoptosis in human MCF7 cells assessed as necrotic cells at 5 uM incubated for 24 hrs by Annexin V-FITC/PI staining based flow cytometry analysis (reference value: 1.94%); type: functional
MCF7 [4] = assay: Induction of apoptosis in human MCF7 cells assessed as viable cells at 5 uM incubated for 24 hrs by Annexin V-FITC/PI staining based flow cytometry analysis (reference value: 93.51%); type: functional; conditions: read-out: Activity
MCF7 [5] = assay: Induction of apoptosis in human MCF7 cells assessed as late apoptotic cells at 5 uM incubated for 24 hrs by Annexin V-FITC/PI staining based flow cytometry analysis (reference value: 3.54%); type: functional
MCF7 [6] = assay: Inhibition of cell migration in human MCF7 cells at 5 uM incubated for 36 hrs by crystal violet staining based microscopy analysis; type: functional
[7] = Stability of a compound in human serum assessed as half life at 91 mg/mL incubated for 0 to 144 hrs by HPLC-UV analysis; type: ADME, cell-free; conditions: time 0-144 hrs
MCF7 [8] = assay: Induction of cell death in human MCF7 cells assessed as reduction in number of viable cells at 10 uM incubated for 24 hrs by calcein-AM/PI staining based analysis; type: functional
MCF7 [9] = assay: Inhibition of cell migration in human MCF7 cells at 5 uM incubated for 24 hrs by scratch wound healing assay; type: functional, cell-based
MCF7 [10] = assay: Induction of cell death in human MCF7 cells at 10 uM incubated for 24 hrs by calcein-AM/PI staining based analysis; type: functional

Row | IC50 (HCT-116) | IC50 (MCF7 [1]) | IC50 (U-87 MG) | half-life at 91 mg/mL [7] | Compound | Activity (MCF7 [2]) | Activity (MCF7 [3]) | viability at 5 µM (MCF7 [4]) | Activity (MCF7 [5]) | Activity (MCF7 [6]) | Activity (MCF7 [8]) | Activity (MCF7 [9]) | Activity (MCF7 [10])
1 | 7.94 µM | 8.68 µM | 8.42 µM |  | CC[C@H](C)[C@H](NC(=O)[C@@H](NC(=O)[C@H](C)NC(=O)[C@H](Cc1ccccc1)NC(=O)[C@H](CC(C)C)NC(=O)CNC(C)=O)C(C)C)C(=O)N[C@@H](CCCCN)C(=O)N[C@@H](CCCCN)C(=O)N[C@H]1CSCc2ccccc2CSC[C@@H](C(=O)N[C@@H](CCCCN)C(=O)NCC(=O)N[C@@H](CC(C)C)C(N)=O)NC(=O)[C@H](C(C)C)NC(=O)[C@H](CO)NC(=O)[C@H](C)NC1=O (Ac-GLFAVIKKCASVCKGL-NH2; linker 9-13 via oXylylene) |  |  |  |  |  |  |  | 
2 | 13.9 µM | 12.5 µM | 11.4 µM |  | CC[C@H](C)[C@H](NC(=O)[C@@H](NC(=O)[C@H](CO)NC(=O)[C@H](C)NC(=O)[C@@H](NC(=O)[C@H](CCCCN)NC(=O)[C@H](CCCCN)NC(=O)[C@@H]1CSCc2ccccc2CSC[C@H](NC(=O)CNC(C)=O)C(=O)N[C@@H](Cc2ccccc2)C(=O)N[C@@H](C)C(=O)N[C@@H](C(C)C)C(=O)N1)C(C)C)C(C)C)C(=O)N[C@@H](CCCCN)C(=O)NCC(=O)N[C@@H](CC(C)C)C(N)=O (Ac-GCFAVCKKVASVIKGL-NH2; linker 2-6 via oXylylene) |  |  |  |  |  |  |  | 
3 | 10.6 µM | 13.6 µM | 14.3 µM |  | CC[C@H](C)[C@H](NC(=O)[C@@H](NC(=O)[C@H](CO)NC(=O)[C@@H]1CSCc2cccc(c2)CSC[C@H](NC(=O)[C@@H](NC(=O)[C@H](C)NC(=O)[C@H](Cc2ccccc2)NC(=O)[C@H](CC(C)C)NC(=O)CNC(C)=O)C(C)C)C(=O)N[C@@H](CCCCN)C(=O)N[C@@H](CCCCN)C(=O)N[C@@H](C(C)C)C(=O)N1)C(C)C)C(=O)N[C@@H](CCCCN)C(=O)NCC(=O)N[C@@H](CC(C)C)C(N)=O (Ac-GLFAVCKKVCSVIKGL-NH2; linker 6-10 via mXylylene) |  |  |  |  |  |  |  | 
4 | 13.4 µM | 15.7 µM | 15.6 µM |  | CC[C@H](C)[C@H](NC(=O)[C@@H](NC(=O)[C@H](CO)NC(=O)[C@@H]1CSCc2ccc(cc2)CSC[C@H](NC(=O)[C@@H](NC(=O)[C@H](C)NC(=O)[C@H](Cc2ccccc2)NC(=O)[C@H](CC(C)C)NC(=O)CNC(C)=O)C(C)C)C(=O)N[C@@H](CCCCN)C(=O)N[C@@H](CCCCN)C(=O)N[C@@H](C(C)C)C(=O)N1)C(C)C)C(=O)N[C@@H](CCCCN)C(=O)NCC(=O)N[C@@H](CC(C)C)C(N)=O (Ac-GLFAVCKKVCSVIKGL-NH2; linker 6-10 via pXylylene) |  |  |  |  |  |  |  | 
5 | 12.9 µM | 11.8 µM | 12.8 µM |  | CC[C@H](C)[C@@H]1NC(=O)[C@@H](NC(=O)[C@H](C)NC(=O)[C@H](Cc2ccccc2)NC(=O)[C@H](CC(C)C)NC(=O)CNC(C)=O)CSCc2ccc(cc2)CSC[C@@H](C(=O)N[C@@H](C)C(=O)N[C@@H](CO)C(=O)N[C@H](C(=O)N[C@H](C(=O)N[C@@H](CCCCN)C(=O)NCC(=O)N[C@@H](CC(C)C)C(N)=O)[C@@H](C)CC)C(C)C)NC(=O)[C@H](CCCCN)NC(=O)[C@H](CCCCN)NC1=O (Ac-GLFACIKKCASVIKGL-NH2; linker 5-9 via pXylylene) |  |  |  |  |  |  |  | 
6 | 114 µM | 32.1 µM | 25.9 µM |  | CC[C@H](C)[C@H](NC(=O)[C@@H](NC(=O)[C@H](C)NC(=O)[C@H](Cc1ccccc1)NC(=O)[C@H](CC(C)C)NC(=O)CNC(C)=O)C(C)C)C(=O)N[C@@H](CCCCN)C(=O)N[C@@H](CCCCN)C(=O)N[C@H]1CSCc2ccc(cc2)CSC[C@@H](C(=O)N[C@@H](CCCCN)C(=O)NCC(=O)N[C@@H](CC(C)C)C(N)=O)NC(=O)[C@H](C(C)C)NC(=O)[C@H](CO)NC(=O)[C@H](C)NC1=O (Ac-GLFAVIKKCASVCKGL-NH2; linker 9-13 via pXylylene) |  |  |  |  |  |  |  | 
7 | 11 µM | 8.34 µM | 10.7 µM |  | CC[C@H](C)[C@H](NC(=O)[C@@H](NC(=O)[C@H](C)NC(=O)[C@H](Cc1ccccc1)NC(=O)[C@H](CC(C)C)NC(=O)CNC(C)=O)C(C)C)C(=O)N[C@@H](CCCCN)C(=O)N[C@@H](CCCCN)C(=O)N[C@H]1CSCc2cccc(c2)CSC[C@@H](C(=O)N[C@@H](CCCCN)C(=O)NCC(=O)N[C@@H](CC(C)C)C(N)=O)NC(=O)[C@H](C(C)C)NC(=O)[C@H](CO)NC(=O)[C@H](C)NC1=O (Ac-GLFAVIKKCASVCKGL-NH2; linker 9-13 via mXylylene) |  |  |  |  |  |  |  | 
8 | 5.04 µM | 2.75 µM | 2.8 µM | 143 h | CC[C@H](C)[C@@H]1NC(=O)[C@@H](NC(=O)[C@H](C)NC(=O)[C@H](Cc2ccccc2)NC(=O)[C@H](CC(C)C)NC(=O)CNC(C)=O)CSCc2ccccc2CSC[C@@H](C(=O)N[C@@H](C)C(=O)N[C@@H](CO)C(=O)N[C@H](C(=O)N[C@H](C(=O)N[C@@H](CCCCN)C(=O)NCC(=O)N[C@@H](CC(C)C)C(N)=O)[C@@H](C)CC)C(C)C)NC(=O)[C@H](CCCCN)NC(=O)[C@H](CCCCN)NC1=O (Ac-GLFACIKKCASVIKGL-NH2; linker 5-9 via oXylylene) | 22.39% | 1.35% | 1.1% | 75.52% | Active | Active | Active | 
9 | 230 µM | 54.1 µM | 53 µM |  | CC[C@H](C)[C@H](NC(=O)[C@@H](NC(=O)[C@H](CO)NC(=O)[C@H](C)NC(=O)[C@@H](NC(=O)[C@H](CCCCN)NC(=O)[C@H](CCCCN)NC(=O)[C@@H]1CSCc2ccc(cc2)CSC[C@H](NC(=O)CNC(C)=O)C(=O)N[C@@H](Cc2ccccc2)C(=O)N[C@@H](C)C(=O)N[C@@H](C(C)C)C(=O)N1)C(C)C)C(C)C)C(=O)N[C@@H](CCCCN)C(=O)NCC(=O)N[C@@H](CC(C)C)C(N)=O (Ac-GCFAVCKKVASVIKGL-NH2; linker 2-6 via pXylylene) |  |  |  |  |  |  |  | 
10 | 16.2 µM | 14 µM | 14.4 µM | 6.81 h | Ac-GLFAVIKKVASVIKGL-NH2 | 2.44% | 8.31% | 77.5% | 11.45% | inactive |  |  | Active
11 | 8.23 µM | 9.25 µM | 11.8 µM |  | CC[C@H](C)[C@@H]1NC(=O)[C@@H](NC(=O)[C@H](C)NC(=O)[C@H](Cc2ccccc2)NC(=O)[C@H](CC(C)C)NC(=O)CNC(C)=O)CSCc2cccc(c2)CSC[C@@H](C(=O)N[C@@H](C)C(=O)N[C@@H](CO)C(=O)N[C@H](C(=O)N[C@H](C(=O)N[C@@H](CCCCN)C(=O)NCC(=O)N[C@@H](CC(C)C)C(N)=O)[C@@H](C)CC)C(C)C)NC(=O)[C@H](CCCCN)NC(=O)[C@H](CCCCN)NC1=O (Ac-GLFACIKKCASVIKGL-NH2; linker 5-9 via mXylylene) |  |  |  |  |  |  |  | 
12 | 7.44 µM | 7.47 µM | 9.2 µM |  | CC(=O)NCC(=O)N[C@@H](CC(C)C)C(=O)N[C@@H](Cc1ccccc1)C(=O)N[C@@H](C)C(=O)N[C@H](C(=O)N[C@H]1CSCc2ccc(cc2)-c2ccc(cc2)CSC[C@@H](C(=O)N[C@@H](CCCCN)C(=O)NCC(=O)N[C@@H](CC(C)C)C(N)=O)NC(=O)[C@H](C(C)C)NC(=O)[C@H](CO)NC(=O)[C@H](C)NC(=O)[C@H](C(C)C)NC(=O)[C@H](CCCCN)NC(=O)[C@H](CCCCN)NC1=O)C(C)C (Ac-GLFAVCKKVASVCKGL-NH2; linker 6-13 via Biphenyl(4,4'-CH2)2) |  |  |  |  |  |  |  | 
13 | 5.86 µM | 6.58 µM | 6.27 µM | 143 h | CC[C@H](C)[C@H](NC(=O)[C@@H](NC(=O)[C@H](CO)NC(=O)[C@@H]1CSCc2ccccc2CSC[C@H](NC(=O)[C@@H](NC(=O)[C@H](C)NC(=O)[C@H](Cc2ccccc2)NC(=O)[C@H](CC(C)C)NC(=O)CNC(C)=O)C(C)C)C(=O)N[C@@H](CCCCN)C(=O)N[C@@H](CCCCN)C(=O)N[C@@H](C(C)C)C(=O)N1)C(C)C)C(=O)N[C@@H](CCCCN)C(=O)NCC(=O)N[C@@H](CC(C)C)C(N)=O (Ac-GLFAVCKKVCSVIKGL-NH2; linker 6-10 via oXylylene) | 15.92% | 3.9% | 43.2% | 37.02% | Active | Active | Active | 
14 | 106 µM | 54.7 µM | 57.8 µM |  | CC[C@H](C)[C@H](NC(=O)[C@@H](NC(=O)[C@H](CO)NC(=O)[C@H](C)NC(=O)[C@@H](NC(=O)[C@H](CCCCN)NC(=O)[C@H](CCCCN)NC(=O)[C@@H]1CSCc2cccc(c2)CSC[C@H](NC(=O)CNC(C)=O)C(=O)N[C@@H](Cc2ccccc2)C(=O)N[C@@H](C)C(=O)N[C@@H](C(C)C)C(=O)N1)C(C)C)C(C)C)C(=O)N[C@@H](CCCCN)C(=O)NCC(=O)N[C@@H](CC(C)C)C(N)=O (Ac-GCFAVCKKVASVIKGL-NH2; linker 2-6 via mXylylene) |  |  |  |  |  |  |  | 
